The test system of assay [1] is L-DOPA induced dyskinesia in parkinsonian rats. Kind of assay: L-DOPA-induced abnormal involuntary movements (AIMS) in the 6-OHDA lesion rat model. The format is in vivo. The procedure: In the following study, the compound of Example 2 was tested for its in vivo activity against L-DOpA induced dyskinesia in parkinsonian rats (the model is the L-DOPA-induced abnormal involuntary movements (AIMS) in the 6-hydroxydopamine (6-OHDA) lesion rat model).
Rats were unilaterally lesioned with (6-OHDA) in medial forebrain bundle. Three weeks later, rats were injected with apomorphine (0.1 mg/kg s.c.) and numbers of contralateral turns were counted using a rotameter. Two weeks after the apomorphine test, rats showing marked turning activity were selected and split into 2 groups:
The experimental group, which received the compound of Example 2, and the control group, which received the injection medium for said compound (CMC in saline); n=5 and 3 respectively.
All animals were treated daily with L-dopa/carbidopa (25/6 mg/kg respectively) and dyskinetic movements were scored commencing day 5. Compounds were administered in escalating dose, at daily doses shown below, commencing day 11 of L-dopa treatment: 1 mg/kg—11th day, 1 mg/kg—12th, 2 mg/kg—15th, 2 mg/kg—16th. On the 17th day, the rats of the control group were injected with propranolol (10 mg/kg in saline), whereas the rats of the experimental group were injected with saline. […]
The following dyskinetic movements were scored: dystonic posturing, head and upper body movements, forelimb, locomotion, trunk, orolingual.

The target in the next assay is dopamine D3 receptor (Homo sapiens, UniProt P35462). Kind of assay: dopamine D3 receptor binding (inhibition of labeled ligand binding). The note with it: compound at 1micrMol. Here is the method: (§1) The compounds of the invention may be used in the treatment of CNS disorders in mammals, especially human. Of particular interest is the use of the compounds of the invention as anti-dyskinetic agents. Dyskinesia is a serious side effect associated with L-DOPA treatment of patients with Parkinson's disease.
Sequence of dopamine D3 receptor (P35462 whole entry): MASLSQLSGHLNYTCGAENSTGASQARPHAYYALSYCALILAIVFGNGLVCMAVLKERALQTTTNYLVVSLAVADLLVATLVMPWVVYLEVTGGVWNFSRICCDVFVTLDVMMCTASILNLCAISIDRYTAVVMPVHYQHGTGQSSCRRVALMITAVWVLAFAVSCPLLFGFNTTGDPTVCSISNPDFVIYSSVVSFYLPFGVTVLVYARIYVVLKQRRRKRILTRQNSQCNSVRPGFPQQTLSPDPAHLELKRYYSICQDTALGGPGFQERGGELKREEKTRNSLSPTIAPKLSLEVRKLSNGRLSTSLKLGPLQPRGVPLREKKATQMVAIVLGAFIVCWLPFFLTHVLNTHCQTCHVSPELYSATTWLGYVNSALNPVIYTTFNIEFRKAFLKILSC
(§2) The compounds of Examples 1, 3, 4 and 9 were tested for their 5-HT1A receptor binding activity and dopamine (D2, D3 and D4.4) receptors binding activity according to the protocols set forth above. The percentage inhibition of labeled ligand binding caused by the indicated few test ligand compound of the invention at different concentrations of said test ligand is shown in Table I.

For the next assay, the target named is T1, dopamine D4.4 receptor (Homo sapiens, UniProt P21917).
T1 sequence (P21917 1-419): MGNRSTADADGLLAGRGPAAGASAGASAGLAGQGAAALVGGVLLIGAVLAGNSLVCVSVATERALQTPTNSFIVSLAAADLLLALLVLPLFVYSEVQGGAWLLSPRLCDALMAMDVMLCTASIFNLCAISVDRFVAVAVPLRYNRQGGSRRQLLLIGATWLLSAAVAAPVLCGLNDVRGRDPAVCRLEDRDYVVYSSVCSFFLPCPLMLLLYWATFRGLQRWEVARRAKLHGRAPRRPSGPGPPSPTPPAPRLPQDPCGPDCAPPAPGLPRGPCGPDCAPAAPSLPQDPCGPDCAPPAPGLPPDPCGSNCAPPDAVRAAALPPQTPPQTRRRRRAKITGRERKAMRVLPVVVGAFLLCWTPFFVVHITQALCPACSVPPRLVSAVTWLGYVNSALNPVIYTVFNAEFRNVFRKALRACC
Kind of assay: dopamine D4.4 receptor binding (inhibition of labeled ligand binding). The note with it: compound at 1micrMol. Here is the method:
as §1, §2

The target of a further assay is dopamine D2 receptor (Homo sapiens, UniProt P14416). As to the kind of experiment: dopamine D2 receptor binding (inhibition of labeled ligand binding). Conditions: compound at 1micrMol. Here is the method: as §1, §2
Sequence of dopamine D2 receptor (P14416 whole entry): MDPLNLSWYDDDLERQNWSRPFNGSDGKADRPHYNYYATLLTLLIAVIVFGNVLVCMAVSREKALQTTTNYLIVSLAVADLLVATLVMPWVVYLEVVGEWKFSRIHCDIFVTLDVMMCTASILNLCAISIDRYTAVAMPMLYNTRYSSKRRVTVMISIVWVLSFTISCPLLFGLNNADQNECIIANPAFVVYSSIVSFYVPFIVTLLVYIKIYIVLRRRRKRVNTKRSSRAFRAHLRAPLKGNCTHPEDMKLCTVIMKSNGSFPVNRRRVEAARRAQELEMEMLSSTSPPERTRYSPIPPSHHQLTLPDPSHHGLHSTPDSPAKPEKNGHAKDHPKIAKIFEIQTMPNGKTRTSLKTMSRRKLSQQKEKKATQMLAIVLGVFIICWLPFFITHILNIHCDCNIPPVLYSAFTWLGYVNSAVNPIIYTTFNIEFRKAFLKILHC
The target of a further assay is T2, 5-HT1A receptor (Homo sapiens, UniProt P08908).
T2 sequence (P08908 1-422): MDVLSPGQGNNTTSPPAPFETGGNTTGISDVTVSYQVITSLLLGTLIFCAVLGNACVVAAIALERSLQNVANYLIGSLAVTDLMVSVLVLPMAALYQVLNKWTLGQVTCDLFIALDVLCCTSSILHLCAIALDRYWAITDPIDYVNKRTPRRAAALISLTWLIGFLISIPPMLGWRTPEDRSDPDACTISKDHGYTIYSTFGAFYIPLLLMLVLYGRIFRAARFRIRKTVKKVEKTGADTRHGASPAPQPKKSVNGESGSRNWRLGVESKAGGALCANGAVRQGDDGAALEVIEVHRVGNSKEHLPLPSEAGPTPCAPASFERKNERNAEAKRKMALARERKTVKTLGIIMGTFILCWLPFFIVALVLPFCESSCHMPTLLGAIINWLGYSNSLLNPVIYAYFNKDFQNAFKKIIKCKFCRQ
Kind of assay: 5-HT1A receptor binding (inhibition of labeled ligand binding). The note with it: compound at 1micrMol. The procedure:
as §1, §2

The structures appear in SMILES notation.

Take `Oc1cccc(N2CCN(Cc3cccc4c3oc3ccccc34)CC2)c1` [Example L-33]: the “anti-dyskinetic effect (AIM score, sum of all movements)” value in assay [1] (6-OHDA lesioned rats on daily L-dopa/carbidopa 25/6 mg/kg, 16th day, second successive daily dose of 2 mg/kg) is “strong anti-dyskinetic effect”. The “D3 binding, percentage inhibition of labeled ligand binding” value (“D3 binding, percentage inhibition” below) on dopamine D3 receptor came out at 78.2%. Besides, on dopamine D4.4 receptor, the “D4 binding, percentage inhibition of labeled ligand binding” value (from here on “D4 binding, percentage inhibition”) was 77.7%. The “D2 binding, percentage inhibition of labeled ligand binding” value (shortened to “D2 binding, percentage inhibition”) on dopamine D2 receptor is listed as 75%. Further, the “5-HT1A binding, percentage inhibition of labeled ligand binding” value (“5-HT1A binding, percentage inhibition” below) on 5-HT1A receptor was 43.4%.

In the case of `c1ccc(C2CCN(Cc3cccc4c3oc3ccccc34)CC2)cc1` [Example L-105], the “D3 binding, percentage inhibition” value at dopamine D3 receptor was found to be 44.5%. Besides, on dopamine D4.4 receptor, the “D4 binding, percentage inhibition” value stood at 69.1%. The “D2 binding, percentage inhibition” value on dopamine D2 receptor is reported as 93.8%. Moreover, on 5-HT1A receptor, the “5-HT1A binding, percentage inhibition” value stood at 42.2%.

As to `COc1ccccc1N1CCN(Cc2cccc3c2oc2ccccc23)CC1` [Example L-107], the “D3 binding, percentage inhibition” value at dopamine D3 receptor was found to be 33.7%. On dopamine D4.4 receptor, the “D4 binding, percentage inhibition” value came out at 78%. The “D2 binding, percentage inhibition” value at dopamine D2 receptor came to 96%. In addition, the “5-HT1A binding, percentage inhibition” value at 5-HT1A receptor came to 86.7%.

With `N#Cc1ccccc1N1CCN(Cc2cccc3c2oc2ccccc23)CC1` [Example L-109], at dopamine D3 receptor, the “D3 binding, percentage inhibition” value is 63.2%. The “D4 binding, percentage inhibition” value on dopamine D4.4 receptor is on record as 64.9%. Also, the “D2 binding, percentage inhibition” value on dopamine D2 receptor was 68.7%. The “5-HT1A binding, percentage inhibition” value on 5-HT1A receptor worked out at 73.5%.

Consider `CC(C)NCC(O)COc1cccc2ccccc12` (stereo not drawn) [Propanolol, propranolol, reference compound], for which the “effect on abnormal involuntary movements (AIM score)” value in assay [1] (6-OHDA lesioned rats on L-dopa/carbidopa, control group, 10 mg/kg in saline on the 17th day) is listed as “reduced the abnormal involuntary movements”.

For the origin of these results see patent US9278957B2, “Piperazine, piperidine and tetrahydropyridine derivatives and their pharmaceutical use” (ATIR Holding S.A., priority 2009, dated 2016).
